Measured values as given in ChEMBL document CHEMBL1140671, “Interaction of O-(undec-10-en)-yl-D-glucose derivatives with the Plasmodium falciparum hexose transporter (PfHT)” (Bioorg Med Chem Lett, 2007).
Activity calls are given as the source filed them. No cut-off for these calls is given here.

Legend:
Hexose transporter 1 = target: T1, Hexose transporter 1 (Plasmodium falciparum, UniProt O97467); assay: Inhibition of [3H]glucose uptake at Plasmodium falciparum HT expressed in Xenopus laevis oocytes; assay type: cell-based, Oocyte
T1 sequence (O97467 whole entry): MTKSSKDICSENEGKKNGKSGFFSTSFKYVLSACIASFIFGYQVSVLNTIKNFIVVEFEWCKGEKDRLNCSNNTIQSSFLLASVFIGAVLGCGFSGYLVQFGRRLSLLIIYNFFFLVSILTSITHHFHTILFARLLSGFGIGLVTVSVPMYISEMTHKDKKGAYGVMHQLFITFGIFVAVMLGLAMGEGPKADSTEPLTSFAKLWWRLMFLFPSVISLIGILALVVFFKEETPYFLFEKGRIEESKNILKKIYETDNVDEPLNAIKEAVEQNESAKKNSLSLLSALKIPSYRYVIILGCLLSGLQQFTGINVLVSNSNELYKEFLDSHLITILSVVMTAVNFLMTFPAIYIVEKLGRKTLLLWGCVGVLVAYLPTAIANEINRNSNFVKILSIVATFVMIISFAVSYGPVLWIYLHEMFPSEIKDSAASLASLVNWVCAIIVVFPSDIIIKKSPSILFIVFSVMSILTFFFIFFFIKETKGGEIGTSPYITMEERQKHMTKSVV

[1] = target: T2, Solute carrier family 2, facilitated glucose transporter member 1 (Homo sapiens) (UniProt P11166); assay: (§1) Inhibition of [3H]glucose uptake at mammalian GLUT1 expressed in Xenopus laevis oocytes; assay type: cell-based; settings: Oocyte
T2 sequence (whole entry): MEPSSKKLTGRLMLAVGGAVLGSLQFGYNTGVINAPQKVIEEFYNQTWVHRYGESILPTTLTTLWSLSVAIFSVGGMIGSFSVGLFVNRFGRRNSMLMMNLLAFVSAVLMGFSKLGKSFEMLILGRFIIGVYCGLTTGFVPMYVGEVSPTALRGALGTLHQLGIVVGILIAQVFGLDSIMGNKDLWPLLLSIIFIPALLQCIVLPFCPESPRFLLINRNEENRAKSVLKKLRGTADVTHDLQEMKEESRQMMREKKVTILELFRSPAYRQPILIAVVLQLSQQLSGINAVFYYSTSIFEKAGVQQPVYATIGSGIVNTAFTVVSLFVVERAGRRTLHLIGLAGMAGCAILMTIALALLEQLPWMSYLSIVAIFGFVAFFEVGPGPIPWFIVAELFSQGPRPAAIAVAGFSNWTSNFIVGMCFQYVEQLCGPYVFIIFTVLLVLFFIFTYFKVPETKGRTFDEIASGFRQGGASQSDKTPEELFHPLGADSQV

[2] = target: T3, Solute carrier family 2, facilitated glucose transporter member 1 (Homo sapiens, UniProt P11166); assay: as §1; assay type: cell-based, Oocyte
T3 sequence (P11166 whole entry): T2 sequence (whole entry)

Plasmodium falciparum = assay: Antiplasmodial activity against Plasmodium falciparum 3D7; assay type: functional, organism-based

Ki (Hexose transporter 1) [µM] | Activity [1] | Ki [2] [µM] | IC50 (Plasmodium falciparum) [µM] | SMILES
> 500 | inactive | – | – | C=CCCCCCCCCCO[C@H]1O[C@H]([C@H](O)CO)[C@H](O)[C@H]1O
2000 | – | 400 | – | C=CCCCCCCCCCOC[C@H]1OC(O)[C@H](O)[C@@H](O)[C@@H]1O (stereo partly drawn)
> 500 | inactive | – | – | C=CCCCCCCCCCO[C@H]1O[C@H](CO)[C@@H](O)[C@H](O)[C@H]1O
2 | inactive | – | 8.2 | C=CCCCCCCCCCO[C@H]1C(O)O[C@H](CO)[C@@H](O)[C@@H]1O (stereo partly drawn)
> 500 | – | > 500 | – | C=CCCCCCCCCCO[C@@H]1O[C@H](CO)[C@@H](O)[C@H](O)[C@H]1O
> 500 | inactive | – | – | C=CCCCCCCCCCO[C@@H]1O[C@H]([C@H](O)CO)[C@H](O)[C@H]1O
1500 | inactive | – | – | C=CCCCCCCCCCO[C@H](CO)[C@H]1OC(O)[C@H](O)[C@H]1O (stereo partly drawn)
26 | – | 98 | 123 | C=CCCCCCCCCCO[C@H]1[C@H](O)[C@@H](CO)OC(O)[C@@H]1O (stereo partly drawn)
